# Data published in patent publication US8084602B2, “Porphyrin derivatives and their use in photodynamic therapy” (Destiny Pharma Limited, priority 2002, dated 2011).
# Like-named read-outs stand apart in the source and are kept apart here.
# Key:
# [1] = test system: intact and abraded rat skin; assay: Acute dermal toxicity test (OECD 402); assay type: in vivo; details: 3.2 mM topical formulation, 24 hours
# Experimental: The compound was applied to both intact and abraded rat skin for 24 hours.
# [2] = test system: Guinea Pig skin (intact and abraded); assay: Photo-toxicity test (OECD 406 based); assay type: in vivo
# Experimental: Clinical and histological examination of the skin test sites was conducted at 24 and 72 hours post illumination in classical photo-toxicity testing fashion. Biopsies were not done from contiguous sites to prevent any interaction in case of suture. Gross findings were evaluated at the moment of the biopsy. Before giving a score to each endpoint (erythema, oedema and inflammation), data for each subject were compared to the data from the other animals and to control data. A score from 0 to 4 was given for each site and for each endpoint according to the Draize Scale (for inflammation, a scale similar to the Draize Scale was created after microscopic observation of all skin sections, comparing with normal skin and with findings of step-1). A mean score was then calculated for each animal and for each sampling point.
# [3] = test system: Escherichia coli (strain ATCC 25922); assay: Initial screening: growth inhibition after white light illumination; assay type: cell-based; details: Escherichia coli
# Experimental: (§1) The toxic effects of exemplary compounds of the invention against two bacterial strains, the Gram negative bacterium Escherichia coli (strain ATCC 25922) and the Gram positive bacterium Staphylococcus aureus (methicillin-resistant strain ATTC BAA-44), were evaluated by measuring the extent of growth inhibition (bacteriostatic effect) and growth […] (cytocidal effect) in the dark and upon light exposure. Initial compound screening was undertaken using white light [390-740 nm] (150 mW/cm^2) for various timepoints of a concentration of 3 μM (see Table 1). Further experiments were undertaken on those compounds identified from this initial screen using a light source emitting light at a wavelength between 417-420 nm at 15.2 mW/cm^2, 13.68 J/cm^2 (Waldmann Eclairage SA, France) (see Table 20.
# (§2) The following protocol was used for the initial screening of the exemplary compounds (Table 1) (see Reddi et al., 2002, Photochem. Photobiol. 75(5):462-470): • (i) E. coli and S. aureus cells were grown overnight on brain heart infusion agar, resuspended in brain heart infusion broth, harvested by centrifugation (3000 g for 15 minutes) and washed once with phosphate buffered saline (PBS) at pH 7.4 consisting 2.7 mM KCl and 0.14 M NaCl. • (ii) The cells were then resuspended in PBS to an optical density at 650 nm of 0.7, which corresponds to a density of 10^8 to 10^9 cells/ml. • (iii) Next, the cells were incubated in PBS in the dark for 5 minutes with 3.0 μM of the compound to be tested. • (iv) After dark incubation, cells were illuminated with white light (wavelength: 390 to 740 nm) (150 mW/cm^2) for up to 30 minutes. During illumination, the cells were kept at 37° C. and magnetically stirred. • (v) Finally, treated and untreated (control) cells were diluted in brain heart infusion broth and maintained at […] while the absorbance of the suspension at 650 nm was monitored at predetermined time points for determining growth curves.
# (§3) The percent of growth inhibition in the treated cells was calculated by the following equation: [1−(Ax−A0)/(Ac−A0)]×100 where Ax Ac are the absorbances measured after 3 hours incubation, for the treated and control cell suspensions, respectively, and A0 represents the initial absorbance.
# [4] = test system: Staphylococcus aureus (methicillin-resistant strain ATTC BAA-44); assay: as above; assay type: cell-based; details: Staphylococcus aureus
# Experimental: as §1, §2, §3
SMILES,Histological toxicology [1],acute toxic or allergic effect [1],clinical toxicology [1],"photo-toxic potential ([2]; 32 μM topical formulation, 24 hours on intact and abraded skin, then 30 minute light exposure, examined 24 and 72 hours post illumination)","damage to the surface of the skin ([2]; 32 μM, in the absence of light)","inhibition at 3 µM ([3]; ATCC25922, 5 min, read-out: Growth inhibition (%), E. coli, 5 min incubation, illumination time 5 min)","inhibition at 3 µM ([3]; ATCC25922, read-out: Growth inhibition (%), E. coli, 5 min incubation, illumination time 0 min)","inhibition at 3 µM ([3]; ATCC25922, read-out: Growth inhibition (%), E. coli, 5 min incubation, illumination time 1 min)","inhibition at 3 µM ([3]; ATCC25922, read-out: Growth inhibition (%), E. coli, 5 min incubation, illumination time 10 min)","inhibition at 3 µM ([3]; ATCC25922, read-out: Growth inhibition (%), E. coli, 5 min incubation, illumination time 15 min)","inhibition at 3 µM ([3]; ATCC25922, read-out: Growth inhibition (%), E. coli, 5 min incubation, illumination time 30 min)","inhibition at 3 µM ([4]; BAA44, 5 min, read-out: Growth inhibition (%), S. aureus, 5 min incubation, illumination time 5 min)","inhibition at 3 µM ([4]; BAA44, read-out: Growth inhibition (%), S. aureus, 5 min incubation, illumination time 0 min)","inhibition at 3 µM ([4]; BAA44, read-out: Growth inhibition (%), S. aureus, 5 min incubation, illumination time 1 min)","inhibition at 3 µM ([4]; BAA44, read-out: Growth inhibition (%), S. aureus, 5 min incubation, illumination time 10 min)","inhibition at 3 µM ([4]; BAA44, read-out: Growth inhibition (%), S. aureus, 5 min incubation, illumination time 15 min)","inhibition at 3 µM ([4]; BAA44, read-out: Growth inhibition (%), S. aureus, 5 min incubation, illumination time 30 min)"
"C[N+](C)(C)CCCOc1ccc(-c2c3nc(cc4ccc([nH]4)c(-c4ccc(OCCC[N+](C)(C)C)cc4)c4nc(cc5ccc2[nH]5)C=C4)C=C3)cc1.[Cl-].[Cl-] [Compound 10, 5,15-bis-[4-(3-Trimethylammonio-propyloxy)-phenyl]-porphyrin dichloride]",No Histological toxicology of any major organ (including the skin) was observed,does not result in any acute toxic or allergic effect,no clinical toxicology was observed,no clinical signs or symptoms or histological findings that suggested any photo-toxic potential,did not result in any damage to the surface of the skin,,,,,,,,,,,,
"CN(C)CCC[N+](C)(C)CCCOc1ccc(-c2c3nc(cc4ccc([nH]4)c(-c4ccc(OCCC[N+](C)(C)CCCN(C)C)cc4)c4nc(cc5ccc2[nH]5)C=C4)C=C3)cc1.[Cl-].[Cl-] [Compound 8, 5,15-bis-(4-{3-[(3-Dimethylamino-propyl)-dimethylammonio]-propyloxy}-phenyl)-porphyrin dichloride]",,,,,,100%,23%,69%,100%,100%,100%,100%,80%,99%,100%,100%,100%
